Paper PMC11546786, “Designing Analogs of SAAP-148 with Enhanced Antimicrobial and Anti-LPS Activities” (International Journal of Molecular Sciences, 2024)
Ends that are not written are not given here.

Assays:
[1] = system: Gram-negative bacteria (E. coli, P. aeruginosa, K. pneumoniae); experiment: Geometric mean of MICs against Gram-negative bacteria; assay type: cell-based; set-up: unit not given here
Summary of the method: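 Modified CLSI broth microdilution: mid-log bacteria from LB culture were adjusted to 1 × 10^6 CFU/mL and mixed 1:1 with peptide serially diluted in PBS. After 18 to 20 h at 37 °C, growth was read as absorbance at 600 nm.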

[2] = Reversed-phase HPLC retention time as measure of peptide hydrophobicity; assay type: physicochemical; settings: retention time by reverse-phase HPLC, reflects hydrophobicity difference between analogues
human erythrocytes = experiment: Haemolytic activity; assay type: cell-based
Description: The haemolytic activity of the peptides was evaluated using a standard procedure with minor adjustments. Fresh human erythrocytes were washed thrice and subsequently resuspended at 1.25% haematocrit in PBS. Forty microlitres PBS-diluted peptide solution was added to a 96-well plate (Corning Inc., Lowell, MA, USA), and 160 μL of erythrocytes was added. After incubation at 37 °C for 30 min, the samples were centrifuged, and the absorbance of the supernatant was measured at 450 nm using a multi-well microplate reader (SpectraMax M5; Molecular Devices, Sunnyvale, CA, USA) and compared with the 100% haemolysis caused by 0.1% Triton X-100. The percentage of haemolysis was calculated according to the equation: Haemolysis%=Asample−Ablank/Atriton−Ablank×100

[3] = system: human erythrocytes versus five bacterial strains; experiment: Therapeutic index (MHC/GM of MIC)
Summary of the method: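 MHC reflects hemolytic activity on erythrocytes, and GM is the geometric mean of the MIC values across the five strains. The TI is their ratio, and larger values denote greater antimicrobial specificity.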

[4] = system: Klebsiella pneumonia (1.1736); assay type: cell-based, Klebsiella pneumoniae
Summary of the method: (§1)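 Broth microdilution (modified CLSI): mid-log bacteria grown in LB at 37 °C were adjusted to 1 × 10^6 CFU/mL and mixed 1:1 with PBS-diluted peptide. After 18–20 h at 37 °C, absorbance was read at 600 nm.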

[5] = system: Staphylococcus epidermidis (1.4260); assay type: cell-based
Summary of the method: as §1

[6] = system: Staphylococcus aureus (1.8721); assay type: cell-based
Summary of the method: as §1

[7] = system: Pseudomonas aeruginosa (1.2421); assay type: cell-based
Summary of the method: as §1

With LKRVWKRVFKLKKRYWRQLKKPVR-NH2 [SAAP-7] the “GM to G−” value [1] was 9.93, the “Rt” value [2] was 12.897 min and the “fold increase of MHC over that of SAAP-148” value (human erythrocytes) was 133.33 fold. For the same substance, the “Fold (TI of analogue compared with SAAP-148)” value ([3]; TI change relative to SAAP-148) was 55.09, the “TI (MHC/MIC)” value ([3]; ratio of MHC to geometric mean of MIC (five strains)) was 6.06 and the “MIC K. pneumoniae” value [4] was 100.00 µM. For the same substance, the “MIC S. epidermidis” value [5] was 12.50 µM, the “MIC S. aureus” value [6] was 100.00 µM and the “MIC P. aeruginosa” value [7] was 3.13 µM.
